System: hepatocytes
Experiment: Seq-Well scRNA-Seq of hepatocytes after APAP overdose (signature scores, DEG vs untreated)
Format: in vivo, mouse
[1] = cluster A96, DEG between treatment (APAP and PH)
[2] = fraction of A96 (APAP, 96 h) hepatocytes expressing the gene
[3] = hepatocyte cluster A96 (APAP, 96 h) vs all other clusters

## CC(=O)Nc1ccc(O)cc1 [APAP, acetaminophen]
[1]
  avg_logFC, gene Decr2: 0.3018
  avg_logFC, gene Dhdh: 0.2626
  avg_logFC, gene Etfdh: 0.2639
  avg_logFC, gene Etnppl: 0.3154
  avg_logFC, gene F5: 0.2566
  avg_logFC, gene Fmo1: 0.265
  avg_logFC, gene G0s2: 0.2656
  avg_logFC, gene G6pc: 0.2541
  avg_logFC, gene Gabarapl1: 0.2932
  avg_logFC, gene Gadd45b: 0.2598
  avg_logFC, gene Gas5: 0.2823
  avg_logFC, gene Gm4952: 0.2581
  avg_logFC, gene Gsta2: 0.311
  avg_logFC, gene Gstt3: 0.3026
  avg_logFC, gene Gyk: 0.3134
  avg_logFC, gene Hmgcl: 0.2744
  avg_logFC, gene Hmgcs1: 0.3251
  avg_logFC, gene Hpgd: 0.3412
  avg_logFC, gene Hsd17b7: 0.3028
  avg_logFC, gene Hsd17b10: 0.2802
  avg_logFC, gene Igfbp1: 0.2603
  avg_logFC, gene Kif1b: 0.2961
  avg_logFC, gene Lcat: 0.2616
  avg_logFC, gene Mia3: 0.2604
  avg_logFC, gene Ndufa3: 0.2743
  avg_logFC, gene Ndufa7: 0.26
  avg_logFC, gene Nr1i3: 0.3481
  avg_logFC, gene Oat: 0.4904
  avg_logFC, gene Pon1: 0.2899
  avg_logFC, gene Por: 0.2867
  avg_logFC, gene Ppp1r3b: 0.251
  avg_logFC, gene Ppp2r5a: 0.3505
  avg_logFC, gene Ptms: 0.2863
  avg_logFC, gene Pxmp4: 0.2555
  avg_logFC, gene Rdh16: 0.3477
  avg_logFC, gene Rdx: 0.2566
  avg_logFC, gene Rgn: 0.3686
  avg_logFC, gene Sc4mol: 0.3361
  avg_logFC, gene Slc4a4: 0.2977
  avg_logFC, gene Slc25a20: 0.2507
  avg_logFC, gene Slco1a4: 0.3049
  avg_logFC, gene Snord118: 0.3782
  avg_logFC, gene Tgoln1: 0.2809
  avg_logFC, gene Tmed5: 0.2523
  avg_logFC, gene Tobi: 0.2958
  avg_logFC, gene Tsc22d3: 0.3363
  avg_logFC, gene Zfp36l1: 0.2964
  avg_logFC, gene Zfp91: 0.2775
[2]
  pct.1 8430408G22Rik: 0.559
  pct.1 Acot12: 0.65
  pct.1 Agpat6: 0.743
  pct.1 Aplp2: 0.826
  pct.1 Apoc2: 0.901
  pct.1 Apol7a: 0.559
  pct.1 Aqp9: 0.801
  pct.1 Arl4a: 0.517
  pct.1 Brap: 0.642
  pct.1 Cd36: 0.299
  pct.1 Cebpb: 0.585
  pct.1 Cede107: 0.59
  pct.1 Ces1e: 0.71
  pct.1 Ces1f: 0.895
  pct.1 Cisd1: 0.781
  pct.1 Cpeb4: 0.527
  pct.1 Cpox: 0.634
  pct.1 Cxcl12: 0.635
  pct.1 D4Wsu53e: 0.597
  pct.1 D17Wsu92e: 0.771
  pct.1 Dcxr: 0.735
  pct.1 Dhdh: 0.734
  pct.1 Ech1: 0.917
  pct.1 Ehhadh: 0.78
  pct.1 Ephx1: 0.879
  pct.1 Etfdh: 0.811
  pct.1 Etnppl: 0.677
  pct.1 Fmo1: 0.606
  pct.1 Gclm: 0.865
  pct.1 Hamp2: 0.203
  pct.1 Hsd17b7: 0.56
  pct.1 Lcat: 0.886
  pct.1 Mocs2: 0.737
  pct.1 Mtdh: 0.649
  pct.1 Ndufa3: 0.737
  pct.1 Ndufb2: 0.731
  pct.1 Nfe2l2: 0.465
  pct.1 Oat: 0.653
  pct.1 Pabpc1: 0.766
  pct.1 Pdk1: 0.438
  pct.1 Prkd3: 0.682
  pct.1 Ptp4a2: 0.691
  pct.1 Rgn: 0.899
  pct.1 Sdhc: 0.76
  pct.1 Sdhd: 0.775
  pct.1 Slc4a4: 0.609
  pct.1 Slc25a10: 0.701
  pct.1 Tgoln1: 0.756
  pct.1 Tmed5: 0.714
  pct.1 Tmem106b: 0.727
  pct.1 Tob1: 0.649
  pct.1 Tsc22d3: 0.534
  pct.1 Usmg5: 0.59
  pct.1 Zfp91: 0.693
Gene Atp2a2, time point A96
  pct.1 Atp2a2: 0.64
Gene Atp2a2, time point A96 vs untreated (UT)
  avg_logFC Atp2a2: 0.2537
Gene Csad, time point A96
  pct.1 Csad: 0.843
Gene Csad, time point A96 vs untreated (UT)
  avg_logFC Csad: 0.2906
Gene Eef1b2, time point A96
  pct.1 Eef1b2: 0.743
Gene Eef1b2, time point A96 vs untreated (UT)
  avg_logFC Eef1b2: −0.2686
Gene Etnppl, time point A96
  pct.1 Etnppl: 0.677
Gene Etnppl, time point A96 vs untreated (UT)
  avg_logFC Etnppl: 0.407
Gene Fos, time point A96
  pct.1 Fos: 0.619
Gene Fos, time point A96 vs untreated (UT)
  avg_logFC Fos: 0.3272
Gene Ftl1, time point A96
  pct.1 Ftl1: 0.363
Gene Ftl1, time point A96 vs untreated (UT)
  avg_logFC Ftl1: −0.2798
Gene Gm20594, time point A96
  pct.1 Gm20594: 0.262
Gene Gm20594, time point A96 vs untreated (UT)
  avg_logFC Gm20594: −0.2928
Gene Hes6, time point A96
  pct.1 Hes6: 0.33
Gene Hes6, time point A96 vs untreated (UT)
  avg_logFC Hes6: −0.2781
Gene Hsd3b3, time point A96
  pct.1 Hsd3b3: 0.499
Gene Hsd3b3, time point A96 vs untreated (UT)
  avg_logFC Hsd3b3: −0.313
Gene Hsd17b2, time point A96
  pct.1 Hsd17b2: 0.614
Gene Hsd17b2, time point A96 vs untreated (UT)
  avg_logFC Hsd17b2: −0.3005
Gene Hsd17b13, time point A96
  pct.1 Hsd17b13: 0.755
Gene Hsd17b13, time point A96 vs untreated (UT)
  avg_logFC Hsd17b13: 0.2678
Gene Ifi27, time point A96
  pct.1 Ifi27: 0.325
Gene Ifi27, time point A96 vs untreated (UT)
  avg_logFC Ifi27: −0.2572
Gene Ifitm3, time point A96
  pct.1 Ifitm3: 0.742
Gene Ifitm3, time point A96 vs untreated (UT)
  avg_logFC Ifitm3: −0.2797
Gene Krt8, time point A96
  pct.1 Krt8: 0.47
Gene Krt8, time point A96 vs untreated (UT)
  avg_logFC Krt8: −0.265
Gene Malat1, time point A96
  pct.1 Malat1: 0.702
Gene Malat1, time point A96 vs untreated (UT)
  avg_logFC Malat1: −0.4647
Gene Mup2, time point A96
  pct.1 Mup2: 0.256
Gene Mup2, time point A96 vs untreated (UT)
  avg_logFC Mup2: −0.5008
Gene Mup4, time point A96
  pct.1 Mup4: 0.824
Gene Mup4, time point A96 vs untreated (UT)
  avg_logFC Mup4: −0.6934
Gene Naa50, time point A96
  pct.1 Naa50: 0.517
Gene Naa50, time point A96 vs untreated (UT)
  avg_logFC Naa50: 0.2658
Gene Ndufb11, time point A96
  pct.1 Ndufb11: 0.669
Gene Ndufb11, time point A96 vs untreated (UT)
  avg_logFC Ndufb11: −0.2832
Gene Nme1, time point A96
  pct.1 Nme1: 0.561
Gene Nme1, time point A96 vs untreated (UT)
  avg_logFC Nme1: −0.2724
Gene Oat, time point A96
  pct.1 Oat: 0.653
Gene Oat, time point A96 vs untreated (UT)
  avg_logFC Oat: 0.3439
Gene Pnpla7, time point A96
  pct.1 Pnpla7: 0.455
Gene Pnpla7, time point A96 vs untreated (UT)
  avg_logFC Pnpla7: −0.3397
Gene Prdx4, time point A96
  pct.1 Prdx4: 0.517
Gene Prdx4, time point A96 vs untreated (UT)
  avg_logFC Prdx4: −0.314
Gene Psmb1, time point A96
  pct.1 Psmb1: 0.703
Gene Psmb1, time point A96 vs untreated (UT)
  avg_logFC Psmb1: −0.2659
Gene Psmb5, time point A96
  pct.1 Psmb5: 0.241
Gene Psmb5, time point A96 vs untreated (UT)
  avg_logFC Psmb5: −0.2633
Gene Rarres1, time point A96
  pct.1 Rarres1: 0.274
Gene Rarres1, time point A96 vs untreated (UT)
  avg_logFC Rarres1: −0.2874
Gene Rgn, time point A96
  pct.1 Rgn: 0.899
Gene Rgn, time point A96 vs untreated (UT)
  avg_logFC Rgn: 0.2614
Gene Rpl32, time point A96
  pct.1 Rpl32: 0.689
Gene Rpl32, time point A96 vs untreated (UT)
  avg_logFC Rpl32: −0.2631
Gene Rpl41, time point A96
  pct.1 Rpl41: 0.274
Gene Rpl41, time point A96 vs untreated (UT)
  avg_logFC Rpl41: −0.2575
Gene Rps8, time point A96
  pct.1 Rps8: 0.378
Gene Rps8, time point A96 vs untreated (UT)
  avg_logFC Rps8: −0.2585
Gene Rps15, time point A96
  pct.1 Rps15: 0.468
Gene Rps15, time point A96 vs untreated (UT)
  avg_logFC Rps15: −0.2545
Gene Selk, time point A96
  pct.1 Selk: 0.393
Gene Selk, time point A96 vs untreated (UT)
  avg_logFC Selk: −0.2647
Gene Serp1, time point A96
  pct.1 Serp1: 0.671
Gene Serp1, time point A96 vs untreated (UT)
  avg_logFC Serp1: −0.2992
Gene Ubb, time point A96
  pct.1 Ubb: 0.379
Gene Ubb, time point A96 vs untreated (UT)
  avg_logFC Ubb: −0.2685
Gene mmu-mir-6236, time point A96
  pct.1 mmu-mir-6236: 0.801
Gene mmu-mir-6236, time point A96 vs untreated (UT)
  avg_logFC mmu-mir-6236: −0.6272
Gene mt-Atp6, time point A96
  pct.1 mt-Atp6: 0.43
Gene mt-Atp6, time point A96 vs untreated (UT)
  avg_logFC mt-Atp6: −0.3955
[3]
  avg_logFC 8430408G22Rik: 0.2774
  avg_logFC Acot12: 0.2802
  avg_logFC Agpat6: 0.2753
  avg_logFC Aplp2: 0.2569
  avg_logFC Apoc2: 0.2872
  avg_logFC Apol7a: 0.3029
  avg_logFC Aqp9: 0.2901
  avg_logFC Arl4a: 0.2934
  avg_logFC Brap: 0.2572
  avg_logFC Cd36: 0.2782
  avg_logFC Cebpb: 0.2515
  avg_logFC Cede107: 0.2626
  avg_logFC Ces1e: 0.3109
  avg_logFC Ces1f: 0.2782
  avg_logFC Cisd1: 0.282
  avg_logFC Cpeb4: 0.2994
  avg_logFC Cpox: 0.2562
  avg_logFC Crls1: 0.255
  avg_logFC Cxcl12: 0.3005
  avg_logFC D4Wsu53e: 0.2925
  avg_logFC D17Wsu92e: 0.258
  avg_logFC Dcxr: 0.2522
  avg_logFC Dhdh: 0.2593
  avg_logFC Ech1: 0.2509
  avg_logFC Ehhadh: 0.2545
  avg_logFC Ephx1: 0.252
  avg_logFC Etfdh: 0.2768
  avg_logFC Etnppl: 0.411
